Experimental data from patent US20020119967A1, “Pharmaceutical composition for preventing or treating a disease associated with an excess of IL-12-production” (priority 2000, published 2002).
Read-outs that look alike come from different tables or passages of the source.

Assays:
dendritic cells [1] = test: Expression of cell surface molecules (CD1a, CD86, ICAM-1, CD83) on DC matured in presence of PDE4 inhibitors, flow cytometry; type: cell-based, human
Description: Dendritic cells were matured for 2 days with LPS in the presence or absence of the PDE4 inhibitors Ariflo or Rolipram and analysed for the expression of cell surface molecules by flow cytometry. In the left corner of each figure the mean fluorescence intensity (Mn).
Dendritic cells were matured for 2 days with the maturation factors TNF-α plus IL-1β (referred to as MF) in the presence or absence of the PDE4 inhibitors Ariflo and Rolipram and analysed for the expression of cell surface molecules by flow cytometry. In the left corner of each figure the mean fluorescence intensity (Mn).
At day 6, the maturation of CD1a^+ DC was induced by a 2-day exposure to either LPS (250 ng/ml; Difco, Detroit, Mich.) or a combination of the cytokines rhIL-1β (10 ng/ml), and TNF-α (25 ng/ml) both obtained from Pharma Biotechnologie, Hannover, Germany. Maturation was induced in the absence or presence of PDE4 inhibitors (10 μM, unless stated otherwise) or PGE2 (10^−6 M; Sigma, St. Louis,Mass.). Where indicated, DC were kept in non-maturing conditions during 2 days.
The mouse mAbs against the following human molecules were used: CD1a (OKT6; Ortho Diagnostic System, Beerse, Belgium), ICAM-1, CD86 (Pharmingen, San Diego, Calif.), CD83 (HB15a, IgG2b; Immunotech, Marseille, France), followed by FITC-conjugated goat anti-mouse mAb (Jackson Immunoresearch Laboratories, West Grove, Pa.).
The maturation process of DC is associated with the appearance of CD83 and upregulation of co-stimulatory molecules like CD86. The study whether the presence of PDE4 inhibitors during DC maturation could affect the cell surface expression of the DC-associated marker CD1a, the co-stimulatory molecules CD86 and ICAM-1, and the DC maturation marker CD83, therefore the study of the expression of these markers after treatment has been performed.

immature DC [2] = test: CD40-induced IL-12 production by immature DC stimulated with J558-CD40L cells; type: cell-based, human; conditions: 10 μM inhibitor, J558-CD40L stimulation, 24 h supernatant
Experimental: FIG. 2 illustrates the inhibitory effect of PDE4 inhibitors on CD40-induced IL12 production by immature DC. DC (2×10^4 cells/well) were stimulated with J558-CD40L cells in the presence of 10 μM of the indicated PDE4 inhibitors (Ariflo, Rolipram, Diazepino-indole or Pirazolo [4,3-e] diazepine). Results are expressed as the cytokine production in pg/ml of 24 h supernatant of cell cultures. The data shown are from one representative experiment out of three giving similar results. Venous blood from healthy donors is collected by venipuncture in sodium-heparin containing tubes ([…], Terumo Europe, Leuven, Belgium). Peripheral blood mononuclear cells (PBMC) are isolated by density centrifugation on Lymphoprep (Nycomed, Torshov, Norway). Subsequently, PBMC are centrifuged on a Percoll (Pharmacia, Uppsala, Sweden) gradient consisting of three density layers (1.076, 1.059 and 1.045 g/ml). The light density fraction floating on the middle layer, which contained predominantly monocytes, is seeded in 24-well culture plates (Costar, Cambridge, Mass.) at a density of 5×10^5 cells/well. […]

Naive Th cells (ThN) = test: Naive T cell differentiation (Th1/Th2) after co-culture with DC matured in presence of PDE4 inhibitors, intracellular IFN-γ/IL-4 staining; type: cell-based, human; conditions: DC matured with MF plus 10 μM inhibitor
immature DC [3] = test: LPS plus IFN-γ-induced cytokine production by immature DC; type: cell-based, human; conditions: immature DC stimulated with LPS and IFN-γ, 24 h supernatants; for IL-12p70 production / TNF-α production: vs DMSO-treated DC
Experimental: FIG. 1 illustrates the inhibitory effect of PDE 4 inhibitors on LPS plus IFN-γ-induced cytokine production by immature DC. DC (2×10^4 cells/well) were stimulated with LPS and IFN-γ combined with the indicated concentrations of PDE4 inhibitors (Ariflo or Rolipram). Results are expressed as the mean cytokine production in ng/ml of duplicate cultures (24h supernatants). A: IL-12p70; B: TNF-α; C: IL-6. Cytokine production is expressed as ng/ml.
Venous blood from healthy donors is collected by venipuncture in sodium-heparin containing tubes (VT100H; Venoject, Terumo Europe, Leuven, Belgium). Peripheral blood mononuclear cells (PBMC) are isolated by density centrifugation on Lymphoprep (Nycomed, Torshov, Norway). Subsequently, PBMC are centrifuged on a Percoll (Pharmacia, Uppsala, Sweden) gradient consisting of three density layers (1.076, 1.059 and 1.045 g/ml). The light density fraction floating on the middle layer, which contained predominantly monocytes, is seeded in 24-well culture plates (Costar, Cambridge, Mass.) at a density of 5×10^5 cells/well. After 30 min of incubation at 37° C., nonadherent cells are removed; adherent cells are cultured in Iscove's modified Dulbecco's medium (Life Technologies, Paisley, U.K.) containing gentamycin (86 μg/ml; Duchefa, Haarlem, The Netherlands) and 1% FCS (Hyclone, Logan, Utah.) and supplemented with GM-CSF (500 U/ml) and IL-4 (250 U/ml) to obtain DC. At day 3, the media, including the supplements, are refreshed. At day 6, immature CD1a^+CD14^− DC are obtained.
Measurements of IL-12p70 levels in culture supernatants were performed by a specific solid-phase sandwich ELISA OptEI™ human IL-12P70 (Pharmingen San Diego, Calif.). Measurements of IL-6 and TNF-α were performed by ELISA using pairs of specific mAbs and recombinant cytokine standards obtained from BioSource International (Camarillo, Calif.). The limits of detection of these ELISA are as follows: IL-6, 20 pg/ml; IL-12p70, 3 pg/ml; and TNF-α, 20 pg/ml.
In contrast, the production of IL-6 by the immature DC was not affected by any of the inhibitors.

dendritic cells [4] = conditions: cited from earlier work
[5] = DC matured 2 days with TNF-α plus IL-1β (MF)

Row | Compound | expression of cell surface molecules (phenotype of mature DC) (dendritic cells [1]; DC matured 2 days with LPS) | expression of cell surface molecules (phenotype of mature DC) (dendritic cells [1]; [5]) | IL-12 production (immature DC [2]) | IFN-γ (%) positive cells (Naive Th cells (ThN); Experiment 1) [%] | IL-4 positive cells (%) (Naive Th cells (ThN); Experiment 1) | IFN-γ (%) positive cells (Naive Th cells (ThN); Experiment 2) [%] | IL-4 (%) positive cells (Naive Th cells (ThN); Experiment 2) [%] | IFN-g (%) positive cells (Naive Th cells (ThN); Experiment 3) [%] | IL-4 (%) positive cells (Naive Th cells (ThN); Experiment 3) [%] | IL-6 production (immature DC [3]) | IL-12p70 production (immature DC [3]) | TNF-α production (immature DC [3]) | IL-12 production by dendritic cells (dendritic cells [4]; shown in the art) | IL-12 production by dendritic cells (dendritic cells [4])
1 | COc1ccc([C@]2(C#N)CC[C@@H](C(=O)O)CC2)cc1OC1CCCC1 [Ariflo] | absence of phenotypic effect | absence of phenotypic effect | able to inhibit IL-12 production | 4.7 | 15.1 | 29.6 | 2.0 | 24.0 | 6.2 | not affected | reduced ability to produce | reduced ability to produce | – | –
2 | COc1ccc(C2CNC(=O)C2)cc1OC1CCCC1 (stereo not drawn) [Rolipram] | absence of phenotypic effect | absence of phenotypic effect | able to inhibit IL-12 production | 7.2 | 13.5 | 35.4 | 1.1 | 24.5 | 5.7 | not affected | reduced ability to produce | reduced ability to produce | – | –
3 | CCCCC[C@H](O)/C=C/[C@H]1[C@H](O)CC(=O)[C@@H]1C/C=C\CCCC(=O)O [prostaglandin E2] | – | – | – | – | – | – | – | – | – | – | – | – | inhibit IL-12 production | –
4 | CC(C)(C)NCC(O)c1ccc(O)c(CO)c1 (stereo not drawn) [salbutamol] | – | – | – | – | – | – | – | – | – | – | – | – | inhibit IL-12 production | –
5 | cholera toxin | – | – | – | – | – | – | – | – | – | – | – | – | – | inhibit IL-12 production
